Measured values taken from patent publication US11970498B2, “CDK2 inhibitors” (BLUEPRINT MEDICINES CORPORATION, priority 2021, dated 2024).

Tests used:
CDK2/Cyclin E = CDK2/Cyclin E (Homo sapiens, UniProt P24941); assay: CDK2/Cyclin E biochemical phosphorylation assay (Caliper mobility shift); conditions: apparent IC50; 1.0 mM ATP or ATP Km; 1.25 nM enzyme; 25° C.; read-out: CDK2/cyclin E1 IC50
How it was run: (§1)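 Caliper electrophoretic separation of substrate and phosphopeptide gave apparent IC50s. Enzymes: CDK1/Cyclin B1 GST-tag 1.5 nM, CDK2/Cyclin E 1.25 nM; ATP 1.0 mM or at Km; 7.5 µM FL-peptide; pH 7.5 HEPES buffer, 1% DMSO; room temperature until 10–20% phosphorylated, then EDTA quench.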

CDK1/Cyclin B1, GST-tag = target: T1, CDK1/Cyclin B1, GST-tag (Homo sapiens, UniProt P06493); assay: CDK1/Cyclin B1 biochemical phosphorylation assay (Caliper mobility shift); conditions: apparent IC50; 1.0 mM ATP or ATP Km; 1.5 nM enzyme; 25° C.
T1 construct: GST
T1 sequence (P06493 whole entry): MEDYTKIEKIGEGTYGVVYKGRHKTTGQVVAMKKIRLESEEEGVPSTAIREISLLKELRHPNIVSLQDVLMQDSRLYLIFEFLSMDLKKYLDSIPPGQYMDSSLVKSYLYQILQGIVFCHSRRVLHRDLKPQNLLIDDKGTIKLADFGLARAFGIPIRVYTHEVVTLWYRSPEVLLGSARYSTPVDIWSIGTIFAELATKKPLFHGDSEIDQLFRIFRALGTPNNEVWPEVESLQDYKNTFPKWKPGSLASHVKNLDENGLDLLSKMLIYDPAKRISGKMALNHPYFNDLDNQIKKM
T1 sequence (P14635 whole entry partner): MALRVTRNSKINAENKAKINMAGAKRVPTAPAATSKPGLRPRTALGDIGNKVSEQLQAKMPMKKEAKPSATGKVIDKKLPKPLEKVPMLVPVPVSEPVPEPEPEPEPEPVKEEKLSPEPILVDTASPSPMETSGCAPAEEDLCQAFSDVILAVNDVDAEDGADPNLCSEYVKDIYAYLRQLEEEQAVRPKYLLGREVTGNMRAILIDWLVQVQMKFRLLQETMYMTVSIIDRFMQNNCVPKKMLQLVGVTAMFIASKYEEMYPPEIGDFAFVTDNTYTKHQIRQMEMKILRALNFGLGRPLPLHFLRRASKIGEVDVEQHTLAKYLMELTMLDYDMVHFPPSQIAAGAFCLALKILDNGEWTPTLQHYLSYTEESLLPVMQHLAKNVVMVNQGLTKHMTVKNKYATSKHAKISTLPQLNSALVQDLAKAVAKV
How it was run: as §1

| SMILES | IC50 (CDK2/Cyclin E) [nM] | IC50 (CDK1/Cyclin B1, GST-tag) [nM] |
| --- | --- | --- |
| N#C[C@H]1C[C@@H]1Cn1ncc2ncc(Nc3cc(OC(F)F)[nH]n3)nc21 (single isomer, unassigned) [Example 27, (1S,2S)-2-((6-((5-(difluoromethoxy)-1H-pyrazol-3-yl)amino)-1H-pyrazolo[3,4-b]pyrazin-1-yl)methyl)cyclopropane-1-carbonitrile or (1R,2R)-2-((6-((5-(difluoromethoxy)-1H-pyrazol-3-yl)amino)-1H-pyrazolo[3,4-b]pyrazin-1-yl)methyl)cyclopropane-1-carbonitrile] | ≤ 10 | 100 to 500 |
| C[C@@H](CCO)n1ncc2ncc(Nc3cc(OC(F)F)[nH]n3)nc21 (single isomer, unassigned) [Example 205, (S)-3-(6-((5-(difluoromethoxy)-1H-pyrazol-3-yl)amino)-1H-pyrazolo[3,4-b]pyrazin-1-yl)butan-1-ol or (R)-3-(6-((5-(difluoromethoxy)-1H-pyrazol-3-yl)amino)-1H-pyrazolo[3,4-b]pyrazin-1-yl)butan-1-ol] | 30 to 100 | ≥ 500 |
| OC1(Cn2ncc3ncc(Nc4cc(OC(F)F)[nH]n4)nc32)CCC1 [Example 125, 1-((6-((5-(difluoromethoxy)-1H-pyrazol-3-yl)amino)-1H-pyrazolo[3,4-b]pyrazin-1-yl)methyl)cyclobutan-1-ol] | 20 to 30 | ≥ 500 |
| N#C[C@H]1C[C@H](Cn2ncc3ncc(Nc4cc(OC(F)F)[nH]n4)nc32)C1 (single isomer, unassigned) [Example 190, (1r,3r)-3-((6-((5-(difluoromethoxy)-1H-pyrazol-3-yl)amino)-1H-pyrazolo[3,4-b]pyrazin-1-yl)methyl)cyclobutane-1-carbonitrile or (1s,3s)-3-((6-((5-(difluoromethoxy)-1H-pyrazol-3-yl)amino)-1H-pyrazolo[3,4-b]pyrazin-1-yl)methyl)cyclobutane-1-carbonitrile] | > 100 | ≥ 500 |
| COc1cc(Nc2cnc3cnn(C[C@H]4C[C@@H]4C#N)c3n2)n[nH]1 (single isomer, unassigned) [Example 196, (1S,2S)-2-((6-((5-methoxy-1H-pyrazol-3-yl)amino)-1H-pyrazolo[3,4-b]pyrazin-1-yl)methyl)cyclopropane-1-carbonitrile or (1R,2R)-2-((6-((5-methoxy-1H-pyrazol-3-yl)amino)-1H-pyrazolo[3,4-b]pyrazin-1-yl)methyl)cyclopropane-1-carbonitrile] | > 100 | ≥ 500 |
| COc1cc(Nc2cnc3cnn(Cc4ccc(F)nc4)c3n2)n[nH]1 [Example 76, 1-((6-fluoropyridin-3-yl)methyl)-N-(5-methoxy-1H-pyrazol-3-yl)-1H-pyrazolo[3,4-b]pyrazin-6-amine] | 20 to 30 | ≥ 500 |
| CC(C)(C1CCOCC1)n1ncc2ncc(Nc3cc(OC(F)F)[nH]n3)nc21 [Example 127, N-(5-(difluoromethoxy)-1H-pyrazol-3-yl)-1-(2-(tetrahydro-2H-pyran-4-yl)propan-2-yl)-1H-pyrazolo[3,4-b]pyrazin-6-amine] | 20 to 30 | ≥ 500 |
| COc1cc(Nc2cnc3cnn(C(C)c4cccnn4)c3n2)n[nH]1 (single isomer, unassigned) [Example 32, (S)—N-(5-methoxy-1H-pyrazol-3-yl)-1-(1-(pyridazin-3-yl)ethyl)-1H-pyrazolo[3,4-b]pyrazin-6-amine or (R)—N-(5-methoxy-1H-pyrazol-3-yl)-1-(1-(pyridazin-3-yl)ethyl)-1H-pyrazolo[3,4-b]pyrazin-6-amine] | 20 to 30 | ≥ 500 |
| FC(F)Oc1cc(Nc2cnc3cnn(C[C@H]4C[C@@H]4F)c3n2)n[nH]1 (single isomer, unassigned) [Example 159, N-(5-(difluoromethoxy)-1H-pyrazol-3-yl)-1-(((1R,2S)-2-fluorocyclopropyl)methyl)-1H-pyrazolo[3,4-b]pyrazin-6-amine or N-(5-(difluoromethoxy)-1H-pyrazol-3-yl)-1-(((1S,2R)-2-fluorocyclopropyl)methyl)-1H-pyrazolo[3,4-b]pyrazin-6-amine] | ≤ 10 | ≥ 500 |
